Test results published in patent US20230059009A1, “INHIBITORS OF LIN28 AND METHODS OF USE THEREOF” (The Regents of the University of California, priority 2019, published 2023).

Columns and labels:
[1] = test system: DU145; assay: Cell viability, MTT assay, DU145; assay type: cell-based; settings: Homo sapiens, DU-145, DU145 (Prostate)
Description: (§1) To measure cell viability, cell titer glow (CTG, Promega CellTiter-Glo 2.0 Assay) and MTT assays (SigmaAldrich, Cell Proliferation Kit I) were performed. Briefly, cells were serum starved overnight prior to seeding in 96-well plates. Following 24 h incubation, cells were treated with increasing concentrations of JGJ compounds for 96 hr. At assay read-out, CellTiter-Glo reagent was added and luminescence was measured after 10-minutes incubation at room temperature. For the MTT assay, MTT labeling reagent was added and incubated for 4 h. Subsequently, medium was removed and 50 μL DMSO was added to solubilize the crystals, and absorbance was measured at 570 nm. Cell viability was calculated as (Sample-Background)/(Control-Background). Current standard of care drugs, Enzalutamide, Palbociclib and Cetuximab were used as comparative controls.

[2] = test system: H460; assay: Cell viability, MTT assay, H460; assay type: cell-based
Description: as §1

[3] = test system: MCF7; assay: Cell viability, MTT assay, MCF7; assay type: cell-based; settings: MCF7 (Breast)
Description: as §1

[4] = Microsomal stability, CD-1 Mouse; assay type: in vitro ADME; settings: for CLint scaled at 30 uM / half-life at 30 uM: microsomes; for half-life at 30 uM: read-out: Microsomal stability T½
[5] = Caco2 permeability; assay type: in vitro ADME; settings: human, Caco-2, Conc. 30 uM; for recovery at 30 uM: read-out: Caco2 Mean A-B % Recovery
[6] = test system: ASPC-1; assay: Cell viability, CTG, ASPC-1; assay type: cell-based
Description: as §1

[7] = target: T1, CYP 1A2 (Homo sapiens, UniProt P05177); assay: CYP inhibition 1A2; assay type: in vitro ADME; parameters: unit not given here; settings: Conc. 30 uM
T1 sequence (P05177 1-516): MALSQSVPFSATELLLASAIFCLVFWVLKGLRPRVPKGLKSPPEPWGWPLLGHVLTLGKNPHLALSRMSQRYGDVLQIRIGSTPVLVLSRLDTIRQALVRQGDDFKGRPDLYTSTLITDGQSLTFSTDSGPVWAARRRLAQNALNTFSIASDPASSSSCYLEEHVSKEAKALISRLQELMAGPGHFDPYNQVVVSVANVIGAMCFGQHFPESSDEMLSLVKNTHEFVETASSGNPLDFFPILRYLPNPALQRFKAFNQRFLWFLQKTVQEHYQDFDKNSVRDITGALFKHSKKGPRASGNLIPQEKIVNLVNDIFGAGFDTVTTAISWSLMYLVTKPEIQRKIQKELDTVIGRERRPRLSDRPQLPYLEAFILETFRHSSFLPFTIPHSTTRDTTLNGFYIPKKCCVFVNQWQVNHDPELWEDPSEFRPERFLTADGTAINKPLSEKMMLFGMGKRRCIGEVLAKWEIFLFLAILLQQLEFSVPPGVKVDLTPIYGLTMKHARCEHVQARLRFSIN

[8] = test system: A549; assay: Cell viability, MTT assay, A549; assay type: cell-based; settings: A549 (Lung)
Description: as §1, with “(Sample-Background)/(Control-Background).” for “(Sample-Background)/(Control-Background). Current standard of care drugs, Enzalutamide, Palbociclib and Cetuximab were used as comparative controls.”

[9] = test system: H23; assay: Cell viability, MTT assay, H23; assay type: cell-based
Description: as §1

[10] = target: T2, CYP 2B6 (Homo sapiens, UniProt P20813); assay: CYP inhibition 2B6; assay type: in vitro ADME; parameters: unit not given here; settings: Conc. 30 uM
T2 sequence (P20813 1-491): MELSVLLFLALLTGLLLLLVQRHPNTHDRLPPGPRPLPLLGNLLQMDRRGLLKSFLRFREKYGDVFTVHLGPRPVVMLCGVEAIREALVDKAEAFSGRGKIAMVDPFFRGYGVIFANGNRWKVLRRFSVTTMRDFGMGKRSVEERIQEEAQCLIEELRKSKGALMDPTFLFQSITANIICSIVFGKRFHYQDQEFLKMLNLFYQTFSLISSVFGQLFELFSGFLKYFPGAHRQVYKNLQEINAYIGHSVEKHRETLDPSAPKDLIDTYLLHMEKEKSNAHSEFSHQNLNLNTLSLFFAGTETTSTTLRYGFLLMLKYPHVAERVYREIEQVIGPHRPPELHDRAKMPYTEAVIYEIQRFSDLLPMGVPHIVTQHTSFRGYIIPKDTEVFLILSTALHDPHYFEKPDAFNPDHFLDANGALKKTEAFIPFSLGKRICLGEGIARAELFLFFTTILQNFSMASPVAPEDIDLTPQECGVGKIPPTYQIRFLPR

[11] = test system: HCT-116; assay: Cell viability, CTG, HCT-116; assay type: cell-based; settings: HCT-116 (Colon)
Description: as §1

[12] = test system: H1975; assay: Cell viability, MTT assay, H1975; assay type: cell-based
Description: as §1, with “(Sample-Background)/(Control-Background).” for “(Sample-Background)/(Control-Background). Current standard of care drugs, Enzalutamide, Palbociclib and Cetuximab were used as comparative controls.”

[13] = test system: 22RV1; assay: Cell viability, MTT assay, 22RV1; assay type: cell-based; settings: 22RV1 (Prostate), 96 hr
Description: as §1, with “(Sample-Background)/(Control-Background).” for “(Sample-Background)/(Control-Background). Current standard of care drugs, Enzalutamide, Palbociclib and Cetuximab were used as comparative controls.”

[14] = test system: MDA-MB231; assay: Cell viability, MTT assay, MDA-MB231; assay type: cell-based
Description: as §1

[15] = test system: SW480; assay: Cell viability, CTG, SW480; assay type: cell-based; settings: SW480 (Colon)
Description: as §1, with “(Sample-Background)/(Control-Background).” for “(Sample-Background)/(Control-Background). Current standard of care drugs, Enzalutamide, Palbociclib and Cetuximab were used as comparative controls.”

[16] = test system: SW620; assay: Cell viability, MTT assay, SW620; assay type: cell-based
Description: as §1

[17] = target: CYP 2C9 (Homo sapiens, UniProt P11712); assay: CYP inhibition 2C9; assay type: in vitro ADME; parameters: unit not given here; settings: Conc. 30 uM
CYP 2C9, sequence (P11712 whole entry): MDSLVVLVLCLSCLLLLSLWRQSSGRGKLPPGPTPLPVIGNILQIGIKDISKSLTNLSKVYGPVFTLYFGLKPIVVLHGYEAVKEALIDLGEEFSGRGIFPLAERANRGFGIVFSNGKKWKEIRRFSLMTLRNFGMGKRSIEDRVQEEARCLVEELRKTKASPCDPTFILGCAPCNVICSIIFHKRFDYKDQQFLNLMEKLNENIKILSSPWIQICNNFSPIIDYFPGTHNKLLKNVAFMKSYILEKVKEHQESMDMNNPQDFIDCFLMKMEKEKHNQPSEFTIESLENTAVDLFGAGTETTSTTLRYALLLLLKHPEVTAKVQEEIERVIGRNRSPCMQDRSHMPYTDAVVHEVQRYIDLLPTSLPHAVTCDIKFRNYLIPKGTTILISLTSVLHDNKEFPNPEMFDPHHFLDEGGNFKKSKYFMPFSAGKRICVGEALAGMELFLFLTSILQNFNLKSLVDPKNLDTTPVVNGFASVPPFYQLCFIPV

[18] = test system: CAPAN-1; assay: Cell viability, CTG, CAPAN-1; assay type: cell-based; settings: CAPAN-1 (Pancreatic)
Description: as §1

[19] = test system: SW480; assay: Cell viability, MTT assay, SW480; assay type: cell-based; settings: SW480 (Colon)
Description: as §1

[20] = test system: BT-549; assay: Cell viability, CTG, BT-549; assay type: cell-based; settings: BT-549 (Breast)
Description: as §1

[21] = test system: LNCaP; assay: Cell viability, MTT assay, LNCaP; assay type: cell-based; settings: LNCaP (Prostate)
Description: as §1, with “(Sample-Background)/(Control-Background).” for “(Sample-Background)/(Control-Background). Current standard of care drugs, Enzalutamide, Palbociclib and Cetuximab were used as comparative controls.”

[22] = Homo sapiens, NCI-H460, H460 (Lung)
[23] = Homo sapiens, ASPC1, ASPC-1 (Pancreatic)
[24] = Homo sapiens, NCI-H23, H23 (Lung)
[25] = Homo sapiens, NCI-H1975, H1975 (Lung)
[26] = Homo sapiens, MDA-MB-231, MDA-MB231 (Breast)
[27] = Homo sapiens, SW-620, SW620 (Colon)

Row | Structure (SMILES) | IC50 [1] [µM] | IC50 [2, 22] [µM] | IC50 ([3]; Homo sapiens) [µM] | Microsomal stability % Remaining at T30 ([4]; Conc. 30 uM) | CLint scaled at 30 uM ([4]; Conc. 30 uM) [mL/min/kg] | half-life at 30 uM ([4]; Conc. 30 uM) [min] | Papp A→B at 30 uM [5] [×10⁻⁶ cm/s] | Papp B→A at 30 uM [5] [×10⁻⁶ cm/s] | efflux ratio at 30 uM [5] | recovery at 30 uM [5] [%] | IC50 [6, 23] [µM] | CYP inhibition 1A2 [7] | IC50 ([8]; Homo sapiens) [µM] | IC50 [9, 24] [µM] | CYP inhibition 2B6 [10] | IC50 ([11]; Homo sapiens) [µM] | IC50 [12, 25] [µM] | IC50 ([13]; Homo sapiens) [µM] | IC50 [14, 26] [µM] | IC50 ([15]; Homo sapiens) [µM] | other results
1 | CC(=O)Nc1cccc(-c2ccc3ncc(C)n3n2)c1 [JGJ007, N-(3-(3-Methylimidazo[1,2-b]pyridazin-6-yl)phenyl)acetamide] | 5 | 512 | 45 | T30 = 37.6% | 257 | 21.2 | 36.2 | 30 | 0.829 | 87 | 188 | 97.3 | 97 | 95 | 45.39 | 148 | 31 | 97 | 39 | 68 | IC50 [16, 27]: 64 µM; CYP inhibition 2C9 [17]: 24.65; IC50 ([18]; Homo sapiens): 91 µM; IC50 ([19]; Homo sapiens): 64 µM; IC50 ([20]; Homo sapiens): 75 µM; IC50 ([21]; Homo sapiens): 54 µM
2 | Cc1cnc2ccc(-c3cccc(F)c3)nn12 [JGJ015, 6-(3-Fluorophenyl)-3-methylimidazo[1,2-b]pyridazine] | 30 | 594 | 59 | T30 = 2.3% | 988 | 5.52 | 24.1 | 21.1 | 0.874 | 67.3 | 157 | 96.4 | 93 | 62 | 67.27 | 148 | 51 | 209 | 145 | 110 | IC50 [16, 27]: 62 µM; CYP inhibition 2C9 [17]: 14.27; IC50 ([18]; Homo sapiens): 137 µM; IC50 ([19]; Homo sapiens): 53 µM; IC50 ([20]; Homo sapiens): 48 µM; IC50 ([21]; Homo sapiens): 83 µM
3 | CC(=O)N(C)c1cccc(-c2ccc3nnc(C)n3n2)c1 [LN1632] |  |  |  |  |  |  |  |  |  |  |  |  |  |  |  |  |  |  |  |  | IC50 ([2]; H460 (Lung)): 172 µM; IC50 [3]: 144 µM; Microsomal stability % Remaining at T30 ([4]; Conc. 100 uM): T30 = 90.2%; Microsomal stability CLint ([4]; Conc. 100 uM): kg) = 27 mL/min/kg; Microsomal stability T½ ([4]; Conc. 100 uM): T½ = 202 min; IC50 ([6]; ASPC-1 (Pancreatic)): 111 µM; IC50 [8]: 151 µM; IC50 ([9]; H23 (Lung)): 167 µM; IC50 [11]: 158 µM; IC50 ([12]; H1975 (Lung)): 91 µM; IC50 [13]: 236 µM; IC50 ([14]; MDA-MB231 (Breast)): 136 µM; IC50 [15]: 168 µM; IC50 ([16]; SW620 (Colon)): 161 µM; IC50 [18]: 82 µM; IC50 [19]: 155 µM; IC50 [20]: 151 µM; IC50 [21]: 110 µM
